Source: ChEMBL document CHEMBL1817609, “SAR studies of 4-pyridyl heterocyclic anilines that selectively induce autophagic cell death in von Hippel-Lindau-deficient renal cell carcinoma cells” (Bioorg Med Chem, 2011)
Active and inactive are the calls of the source. The rule behind the calls is not given here.

Assays:
[1] = Growth inhibition of human RCC4 cells after 4 days by XTT assay; type: functional, cell-based; details: RCC4, 96 h
[2] = Growth inhibition of human RCC4/VHL cells after 4 days by XTT assay; type: functional, cell-based; details: 96 h
[3] = Selectivity ratio IC50 for human RCC4/VHL cells to IC50 for human RCC4 cells; type: functional
RCC4 = experiment: Induction of autophagy in human RCC4 cells assessed as formation of intracytoplasmic vacuoles at 5 uM after 24 hrs by phase contrast microscopy; type: functional, cell-based

SMILES	IC50 ([1]; read-out: IC50) [µM]	IC50 ([1]; read-out: pIC50 (converted)) [µM]	IC50 [2] [µM]	Ratio IC50 [3]	Activity (RCC4)
Cc1cccc(Nc2nc(-c3ccncc3OCCCN(C)C)cs2)c1	2.7	2.75	20.2	7.4	Active
Cc1cccc(Nc2nc(-c3ccncc3)cs2)c1	2.1	2.14	40	19	Active
Cc1cccc(Nc2nc(-c3ccnc(-c4ccccc4)c3)cs2)c1	19.1	19.5	40	2.1	
Cc1cccc(Nc2nc(-c3ccnc(OCCCN(C)C)c3)cs2)c1	6	6.03	8.8	1.5	
Cc1cccc(Nc2nc(-c3ccncc3C#CCCO)cs2)c1	1.1	1.1	2.8	2.5	
Cc1cccc(Nc2cncc(-c3ccncc3)n2)c1	8.5	8.51	31.8	3.7	
Cc1cccc(Nc2nc(-c3ccncc3-c3ccc(S(C)(=O)=O)cc3)cs2)c1	1.6	1.62	13.4	8.4	
Cc1cccc(Nc2nc(-c3ccnc(-c4ccsc4)c3)cs2)c1	8.7	8.71	> 40	>4.6	
Cc1cccc(Nc2nc(-c3c(C)nc4ccccn34)cs2)c1	9.5	9.55	29.8	3.1	
Cc1cccc(Nc2cc(-c3ccncc3)ncn2)c1	23.1	23.4	28.1	1.2	
Cc1cccc(Nc2nc(-c3ccncc3C#CCN3CCOCC3)cs2)c1	0.57	0.575	2.3	4	Active
Cc1cccc(Nc2nccc(-c3ccncc3)n2)c1	6.5	6.61	8.6	1.3	
Cc1cccc(Nc2nc(-c3ccnc(-c4cnn(Cc5ccccc5)c4)c3)cs2)c1	2.2	2.24	66.1	30	Active
Cc1cccc(Nc2nc(-c3ccncc3NCCN3CCOCC3)cs2)c1	19.5	19.5	27.9	1.4	
Cc1cccc(Nc2nc(-c3ccncc3-c3ccc(C(=O)NCCCN(C)C)cc3)cs2)c1	4	4.07	3.9	1	
Cc1cccc(Nc2nc(-c3ccncc3)n[nH]2)c1	28.7	28.8	22.2	0.8	

SMILES	IC50 ([1]; read-out: IC50) [µM]	IC50 ([1]; read-out: pIC50 (converted)) [µM]	IC50 [2] [µM]	Ratio IC50 [3]	Activity (RCC4)
Cc1cccc(Nc2nc(-c3ccnc(N4CCN(C)CC4)c3)cs2)c1	11.5	11.7	31.6	2.8	
Cc1cccc(Nc2nc(-c3cnn4ccccc34)cs2)c1	> 40	40.7	15.3	<0.4	
Cc1cccc(Nc2nc(-c3ccncc3OCCN3CCOCC3)cs2)c1	0.32	0.324	0.88	2.8	
Cc1cccc(Nc2nc(-c3ccnc(-c4cc[nH]n4)c3)cs2)c1	0.48	0.49	20		Active
Cc1cccc(Nc2nc(-c3ccnc(-c4cccc5[nH]ccc45)c3)cs2)c1	3.1	3.16	4.5	1.5	
Cc1cccc(Nc2cccc(-c3ccncc3)c2)c1	36.9	37.2	38.1	1	
Cc1cccc(Nc2nc(-c3ccnc(-c4c(C)noc4C)c3)cs2)c1	3	3.02	36.5	12	
Cc1cccc(Nc2nc(-c3ccncc3-c3ccccc3)cs2)c1	11.6	11.7	33.2	2.9	
Cc1cccc(Nc2nc(-c3ccnc4ccccc34)cs2)c1	12.3	12.3	20	1.6	
CC(=O)c1ccc(-c2cc(-c3csc(Nc4cccc(C)c4)n3)ccn2)cc1	38.8	38.9	33.4	0.9	
Cc1cccc(Nc2cccc(-c3ccncc3)n2)c1	7.4	7.41	> 40	>5.4	
Cc1cccc(Nc2nc(-c3ccncc3N3CCN(C)CC3)cs2)c1	2.6	2.63	6.6	2.5	
c1ccc(Nc2nc(-c3ccncc3)cs2)cc1	7	7.08	> 70	>10	
Cc1cccc(Nc2nc(-c3ccnc(-c4cnn(C)c4)c3)cs2)c1	5.2	5.25	8.1	1.6	
Cc1cccc(Nc2nc(-c3cc(-c4ccccc4)nc4ccccc34)cs2)c1	25.4	25.7	> 40	>1.6	
